Measured values taken from patent US9994536B2, “Compounds and methods of treating neurological disorders” (TORREY PINES INSTITUTE FOR MOLECULAR STUDIES, priority 2014, dated 2018).

Columns and labels:
[1] = test system: sAPPα released from 7WD10 cells (CHO cells stably expressing APP751); experiment: AlphaLISA sAPPα release assay (pilot HTS); format: cell-based; conditions: 5 μM, 7WD10 cells, 24 h
Protocol: (1). The pilot screen was performed using five 384 well plates. […] FDA approved oncology set was screened at 10 μM final assay concentration, while thiazole derivatives were screened at 5 μM. Seven hits from thiazole derivatives were identified using Ave+3SD rule (45) as a nominal cutoff for hit determination (FIG. 1.1 (bottom)). The hits represented a novel piperazine thiazole chemotype (FIG. 1.2).
Pilot screen of AlphaLISA sAPPα release assay. 8 μL of assay media (DMEM supplemented with 10% FBS and 1× Penicillin/Streptomycin) containing 20,000 cells were added to all wells of the assay plate, except column 1 where only media was added. Plates were incubated for 4 h at 37° C., 5% CO2, 95% RH after which 80 nL of test compounds in DMSO or DMSO alone were added to respective wells using a pin tool device (VP Scientific, San Diego). After 24 h of incubation at 37° C., 5% CO2, 95% RH, sAPPα AlphaLISA beads were added in 10 μL of buffer, equilibrated for 1 h, and AlphaLISA signal was measured using a Biotek H4 Synergy microplate reader (Biotek Inc). Three parameters were calculated on a per-plate basis: (a) the signal-to-background ratio (S/B); (b) the coefficient for variation [CV; CV=(standard deviation/mean)×100)] for all compound test wells; and (c) the Z′-factor [31]. Nominally active compounds from the pilot screen were determined using mean plus 3 times the standard deviation (Mean+3SD) was used as the cut-off.
In the absence of known pharmacological agents capable of inducing an increase of sAPPα release, we tested a small molecule (FIG. 2.4A insert, compound 1 in [2]) shown to decrease Aβ release. It was shown that decrease of Aβ release could be accompanied by the increase of soluble APPα, which has a neuroprotective effect. Compound 1 was tested using 20,000 cells/well in the range of 1.2-100 μM using 3-fold serial dilutions and 24 h incubation as an assay endpoint. Increase of sAPPα release was observed only in wells where 100 μM of compound 1 was added either with or without FBS (FIG. 2.4A). Viability of cells was also tested in the presence of 1.2-100 μM of compound 1 to ascertain that the increase of sAPPα release is not due to excessive cell death. Consistent with the above described results, cells were less viable in the absence of FBS. In the presence of 1.2-33 μM of compound 1, cells were approximately 10% less viable than untreated control either with or without FBS (FIG. 2.4B).
To evaluate the ability of the assay to identify compounds that increase the release of sAPPα a pilot screen was conducted using FDA approved oncology set (n=101) and TPIMS heterocycles library (n=700). The pilot screen was performed using five 384 well plates. […]

[2] = test system: sAPPα in supernatants of 7WD10 cells; experiment: Western blot sAPPα release assay, 7WD10 cells; format: cell-based; conditions: 10 nM, 7WD10 supernatant
Protocol: (2). To ascertain that hits identified as a result of AlphaLISA assay are not due to artifacts of the detection system, the sAPPα levels were measured by Western blots as a secondary assay downstream of primary HTS to confirm hits or discard artifacts of the AlphaLISA assay. The assay was performed using a range of concentrations of hit compounds (10-5,000 nM). A hit compound named thiazole piperazine #244 (THPI-244) and THPI-326 induced dose-dependent increase of sAPPα in supernatants of 7WD10 cells (FIG. 1.3). […] Since compound THPI-244 increased sAPPα levels more than THPI-326, we focused on THPI-244 for further validation.
Western blot sAPPα release assay. 7WD10 cells were grown in 6-well plates and treated with test compounds and SAHA (vorinostat) at several concentrations in duplicate wells. After 24 h of drug exposure, the conditioned media (CM) was collected, centrifuged to remove cell debris and subjected to SDS-PAGE electrophoresis. sAPPα (6E10, mouse IgG from IBL America ltd) was detected using indicated antibody. […] Samples were subjected to SDS-PAGE, transferred and immunoblotted with indicated antibodies and detected by enhanced chemiluminescence method. Quantification of Western blot signals was done using ImageJ software.

human primary neurons [3] = experiment: MTT cytotoxicity assay, human primary neurons; format: cell-based; conditions: 24 h exposure
Text: (4). Toxicity is another crucial limitation for successful drug development as evidenced by recent failure of γ-secretase inhibitors at the clinical trials due to cytotoxicity (Cole, S L and Vassar, R, 2007, Mol. Neurodeg. 2, 22-47; Doody R S, et al. 2013. N. Eng. J. Med. 369, 341-350). Therefore we measured cytotoxicity by very sensitive MTT assay as described previously (Hayes, C D., et al. 2013, BMC Medicine. 26, 11.81; 23; Hayes, C D., et al., 2012, PLoS One 7, e45841) in human primary neurons obtained from a commercial source (cat #1520, ScienCell, Carlsbad, Calif., USA) and fibroblasts derived directly from AD patients (cat #AG06263C, Coriell Institute Cell repository supported by NINDS, NIH). […] We directly used human neurons for toxicity studies so as to reduce the chances of future failure at a later stage due to toxicity.

human primary neurons [4] = experiment: Neurite outgrowth, Sholl analysis of dendritic intersections; format: cell-based
Text: (4). The most important property of THPI-244 is its ability to increase neurite outgrowth and dendritic intersections in human primary neurons. Since both TrkA and sAPPα promote neuron growth and provide trophic support, we tested whether treatment of human primary neurons with THPI-244 induces neurite outgrowth. […] Considering an enormous potential for such an excellent results in human neurons, we did systematic analysis by also treating neurons in the presence of TrkA inhibitor to verify if the increased neurite outgrowth is mediated by TrkA receptor. Sholl analysis using ImageJ software of individual neurons (at least 30 per group) immunostained for MAP2 antibody confirmed our initial findings. […] This confirmed that THPI-244 increases TrkA protein levels which has vital role in regulating neuritic outgrowth.

TrkA = TrkA (Homo sapiens, UniProt P04629); experiment: Table of THPI-244 analogs: TrkA increase
Sequence of TrkA (P04629 33-796, species assumed): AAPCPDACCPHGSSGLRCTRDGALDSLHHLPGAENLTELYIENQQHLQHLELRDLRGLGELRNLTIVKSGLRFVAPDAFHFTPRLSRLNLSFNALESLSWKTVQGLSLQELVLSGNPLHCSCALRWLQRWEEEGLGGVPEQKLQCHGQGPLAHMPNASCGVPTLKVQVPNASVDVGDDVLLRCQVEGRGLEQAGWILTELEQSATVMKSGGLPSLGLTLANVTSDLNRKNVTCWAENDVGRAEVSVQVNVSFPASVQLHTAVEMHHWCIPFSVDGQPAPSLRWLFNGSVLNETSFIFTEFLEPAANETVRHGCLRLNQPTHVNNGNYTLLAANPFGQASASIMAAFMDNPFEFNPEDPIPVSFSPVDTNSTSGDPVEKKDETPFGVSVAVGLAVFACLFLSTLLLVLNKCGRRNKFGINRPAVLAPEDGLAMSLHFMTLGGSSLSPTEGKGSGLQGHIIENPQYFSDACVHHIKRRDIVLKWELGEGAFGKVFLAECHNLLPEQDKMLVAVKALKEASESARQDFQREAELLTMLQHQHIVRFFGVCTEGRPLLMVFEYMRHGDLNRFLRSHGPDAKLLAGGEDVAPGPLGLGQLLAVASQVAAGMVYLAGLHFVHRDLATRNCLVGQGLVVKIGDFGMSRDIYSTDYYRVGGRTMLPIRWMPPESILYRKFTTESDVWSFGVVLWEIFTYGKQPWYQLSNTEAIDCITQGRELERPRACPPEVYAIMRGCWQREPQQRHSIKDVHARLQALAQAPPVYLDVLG

O=C(Cc1ccccc1)N[C@H](CNc1nc(CN2CCN(C(=O)Cc3ccccc3)CC2)cs1)c1ccccc1 [THPI-244]
increase of Alpha signal (sAPPα release) [1]: ~2 fold | increase of sAPPα over untreated control cells (Western blot) [2]: 2 fold | lowest concentration with significant cytotoxicity (human primary neurons [3]): 40 µM | number of dendritic intersections (human primary neurons [4]; treated 2DIV to 6DIV): highly significant increase | number of dendritic intersections (human primary neurons [4]; with TrkA inhibitor, 2DIV to 6DIV): almost completely prevented the increased intersections | % TrkA ⬆ (TrkA): 99%
